Experimental data as given in patent US20080294071A1, “Assay Method” (priority 2004, published 2008).

Experiments:
rats [1] = assay: Beam walking test; format: in vivo, Male Sprague Dawley rats
Procedure: (§1) Male Sprague Dawley rats 200-300 g (Charles River, Margate, U.K.) were housed in group of five per cage under a 12 h light/dark cycle with food and water available ad libitum. Each experiment was carried out with groups of at minimum 7 rats. All procedures in this study were performed in accordance with the Home Office Animals (Scientific Procedures) Act 1986 and accordingly with our Project License, after the experiment, animals were sacrificed by schedule 1 method.
The Beam walking apparatus consists of a 1.5 m long beam with a 2.5×2.5 cm square cross section, elevated 75 cm above the floor. The test was performed in dim light conditions (18 lux). A light source (520 lux) was placed at the start-end of the beam while a dark box at the other side (Feeney D M et al, Amphetamine, Haloperidol, and experience interact to affect rate of recovery after motor cortex injury, Science 217, 1982). Rats were habituated to the dim light condition for at least 1 hour before the beginning of the training sessions. Rats were trained to cross the beam over 2 days, twice a day. The first day, rodents were trained to cross starting from last quarter and half of the beam until the dark box, in the first and second session, respectively. The following day rodents were trained to cross the entire length of the beam twice. At least 2 hours were left between each daily session. On the day of test a baseline recording was registered before compound administration and rats were selected based on their ability to cross the beam with no major impairments. Therefore, only rodents that crossed the beam in less than 10 seconds and showing two or less foot slips were used for the assessment of drug-induced motor impairments. Then rats were tested for their ability to cross the beam at various time points after drug injection. The time taken to cross and the number of foot slips produced while a rat was crossing the beam were counted. […] No movement or freezing behaviours were also scored with the maximum value.
(§2) In the locomotor activity task, total counts are the sum of horizontal and vertical movements (photo beam breaks) in 30 minutes recording. For PCP vertical and horizontal activity are analysed separately. Data were expressed as the arithmetic mean ±SEM and analysed by ANOVA. In the beam walking test, the time to cross the beam (seconds) and the number of foot slips were expressed as mean ±SEM and analysed by ANOVA and Mann Whitney U test, respectively.

rats [2] = assay: Locomotor activity test; format: in vivo, Male Sprague Dawley rats
Procedure: as §1
The spontaneous locomotor activity of rats in a novel environment was monitored for 30 min in a 35×20 cm Perspex chamber. The cage was equipped with two series photocells located at 2 and 15 cm above the floor (San Diego Instruments, CA, USA). To measure drug-induced decrease locomotion such as morphine and gabapentin, at a pre-defined time post drug administration, each animal was placed in the centre of the cage. To measure drug-induced increase in locomotion such as phencyclidine (PCP) rats were placed in the cage at least 30 min before recording. total activity (ambulation and rearing) was monitored every 5 min for 30 min.
as §2

[3] = clinical literature; cited from earlier work
[4] = 1 and 10 mg/kg ip, 1 hr post injection

In the case of NCC1(CC(=O)O)CCCCC1 [Gabapentin], the “number of foot slips, effect” value (rats [1]; 100 mg/kg in rats) is reported as “robust increase”, the “time to cross the beam, effect” value (rats [1]; 30, 100 and 300 mg/kg PO, up to 6 hrs, p<0.05) is reported as “only at 3 and 4 hour post administration the highest dose significantly increase the time to cross” and the “duration of effect on foot slips (lasting till)” value (rats [1]; PO) is reported as 4 h. The “time of peak effect on foot slips” value (rats [1]; PO) was 2 h, the “lowest dose increasing number of foot slips” value (rats [1]; PO, 30, 100 and 300 mg/kg tested, dose dependent) was 100 mg/kg and the “rats that fell off the beam” value (rats [1]; PO, 2 hours post dose) was 25%. The “rats that fell off the beam” value (rats [1]; PO, 3 hours post dose) was 25%, the “number of foot slips” value (rats [1]; PO, dose not stated, 1 hour post dose, water treated 0.6±0.4) was 1.5±0.5 and the “number of foot slips (peak effect)” value (rats [1]; PO, dose not stated, 2 hours post dose, vehicle 0.2±0.2, p<0.01) was 2.9±0.5. The “decrease in locomotor activity (of vehicle-treated group)” value (rats [2]; 100 mg/kg PO (highest dose), one hour post dose) was 27%, the “locomotor activity, effect” value (rats [2]; 100 mg/kg in rats) was “small (albeit statistically significant) decrease” and the “locomotor activity, effect across doses” value (rats [2]; 10, 30 and 100 mg/kg PO, one hour post dose) was “decreased significantly the locomotor activity of rats at the highest dose only”. The “total counts in 30 min” value (rats [2]; gabapentin highest dose 100 mg/kg PO, one hour post dose) was 262±25 counts and the “adverse events in humans” value [3] was “dizziness and somnolence”.
For CN1CC[C@]23c4c5ccc(O)c4O[C@H]2[C@@H](O)C=C[C@H]3[C@H]1C5.O=S(=O)(O)O [Morphine sulphate], the “locomotion in the beam walking” value (rats [1]; 3 mg/kg SC, any time point (30 min, 1, 2, 3 h)) was “did not modify the locomotion”, the “time to cross the beam” value (rats [1]; 10 mg/kg SC, 30 min post dose, controls 4.1±0.7, significant) was 12.6 ± 0.7 s and the “number of foot slips” value (rats [1]; 10 mg/kg SC, 30 minutes post dose, vehicle 0.1±0.1, not statistically different) was 1.0±0.6. The “number of foot slips” value (rats [1]; 10 mg/kg SC, 1 hr post dose, vehicle 0.1±0.1, not statistically different) was 1.0±0.6, the “rats falling off the beam” value (rats [1]; 3 and 10 mg/kg SC) was “No rats fell off the beam” and the “MED (minimal effective dose) in beam walking” value (rats [1]; SC) was 10 mg/kg. For the same compound, the “total counts (horizontal + vertical) in 30 min” value (rats [2]; 10 mg/kg SC, 30 min post dose, vehicle 424±23, p<0.01) was 28±6 counts, the “total counts in 30 min” value (rats [2]; morphine 3 mg/kg, comparator in gabapentin study) was 138±26 counts and the “adverse events in humans” value [3] was “somnolence, sedation and addiction”.
In the case of c1ccc(C2(N3CCCCC3)CCCCC2)cc1 [PCP, phencyclidine], the “number of foot slips, effect” value (rats [1]; 1 mg/kg ip, 2 hours post dose, p<0.05) is reported as “slight but significant increase”, the “rodents that could not be placed on the beam (lack of paw coordination)” value (rats [1]; 10 mg/kg ip, 30 min post dose) is reported as 100% and the “rodents that could not be placed on the beam (lack of paw coordination)” value (rats [1]; 10 mg/kg ip, 1 hour post dose) is reported as 100%. The “animals that did cross the beam” value (rats [1]; 10 mg/kg ip, 2 hours post dose) was 80%, the “number of foot slips” value (rats [1]; 10 mg/kg ip, 2 hours post dose, animals that crossed) was at least 5 and the “time taken to cross the beam vs controls” value (rats [1]; 10 mg/kg ip, 2 hours post dose, p<0.01) was “significantly different from controls”. For the same compound, the recovery (rats [1]; 10 mg/kg ip, 4 hrs post dose) was “almost all rats recovered”, the “time taken to cross the beam, effect across doses” value (rats [1]; 0.1-1-10 mg/kg ip) was “increased the time taken to cross the beam at the higher dose only” and the “number of foot slips, effect” value (rats [1]; lower dose (0.1 mg/kg ip)) was “no effect”. The observed signs (rats [2]; 10 mg/kg ip) was “signs of ataxia”, the “vertical activity (rearing)” value (rats [2]; 10 mg/kg, standard protocol for drug-induced decrease in movement, vehicle 186±17, p<0.01, data not shown) was 30±9 and the “total activity (vertical+horizontal) vs vehicle-treated group” value (rats [2]; [4]) was “did not change significantly”. The vertical movement (rats [2]; [4]) was “only the lower dose significantly increased the vertical movement”, the horizontal activity (rats [2]; 1 and 10 mg/kg ip, 1 hr post injection, p<0.05) was “increased the horizontal activity in a dose dependent manner” and the “adverse events in humans” value [3] was “induce ataxia”.
